Source: US11219214B2, “Benzosultams and analogues and their use as fungicides” (Bayer CropScience Aktiengesellschaft, priority 2016, dated 2022)
Where two headings read alike, the source gives them in different places.

Columns and labels:
[1] = 0.1% aqueous formic acid and acetonitrile, gradient 10% to 95% acetonitrile
Protocol: In table 1a, the log P values were determined in accordance with EEC Directive 79/831 Annex V.A8 by HPLC (High Performance Liquid Chromatography) on a reversed-phase column (C 18), using the method described below:
Method C: temperature: 55° C.; mobile phases: 0.1% aqueous formic acid and acetonitrile; linear gradient from 10% acetonitrile to 95% acetonitrile.
If more than one Log P value is available within the same method, all the values are given and separated by “;”.

Leptnosphaeria nodorum = assay: Example C: Leptnosphaeria nodorum in vitro cell test; assay type: cell-based; settings: 144 h, liquid culture, 6 days incubation, inhibition of fungal growth, read-out: Efficacy; for inhibition of growth at 20 ppm: 20 ppm of active ingredient
Protocol: Example C: Leptnosphaeria nodorum In Vitro Cell Test • Solvent: dimethyl sulfoxide (DMSO) • Culture medium: 14.6 g anhydrous D-glucose (VWR), 7.1 g Mycological Peptone (Oxoid), 1.4 g granulated Yeast Extract (Merck), QSP 1 liter • Inoculum: spore suspension Active ingredients were solubilized in DMSO and the solution used to prepare the required range of concentrations. […] A spore suspension of L. nodorum was prepared and diluted to the desired spore density. Active ingredients were evaluated for their ability to inhibit spore germination and mycelium growth in liquid culture assay. The compounds were added in the desired concentration to the culture medium with spores. After 6 days incubation, fungi-toxicity of compounds was determined by spectrometric measurement of mycelium growth. Inhibition of fungal growth was determined by comparing the absorbance values in wells containing the active ingredients with the absorbance in control wells without fungicides.

Pyricularia oryzae = assay: microbe, parasite or virus in culture; assay type: cell-based; settings: 120 h, read-out: Efficacy, 20 ppm of active ingredient, liquid culture, 5 days incubation, inhibition of fungal growth
[2] = Method C: HPLC reversed-phase C 18, 55° C.

SMILES | chromatographic logP ([1]; Method C: 55° C.) | inhibition of growth at 20 ppm (Pyricularia oryzae) | chromatographic logP ([1]; Method A: 40° C.) | other results
CC1Cc2ccccc2NS1(=O)=O (centres unmarked) [3-methyl-3,4-dihydro-1H-2,1-benzothiazine 2,2-dioxide] | 1.33 |  |  | 
COC1N(c2cnc3c(F)cccc3c2)c2ccccc2C1(C)C (centres unmarked) [CMP1, 8-fluoro-3-(2-methoxy-3,3-dimethyl-2,3-dihydro-1H-indol-1-yl)quinoline, reference compound] |  | 7% |  | inhibition of growth at 4 ppm (Leptnosphaeria nodorum): 0%; inhibition of growth at 20 ppm (Leptnosphaeria nodorum): 5%
CC1(C)c2ccccc2N(c2cnc3c(F)cccc3c2)S1(=O)=O [I.015, 3-(3,3-dimethyl-2,2-dioxido-2,1-benzothiazol-1(3H)-yl)-8-fluoroquinoline] |  | 90 to 100% | 3.12 | inhibition of growth at 4 ppm (Leptnosphaeria nodorum): ≥ 80%; inhibition of growth at 20 ppm (Leptnosphaeria nodorum): 90 to 100%
O=S1(=O)Cc2ccccc2N1c1cnc2c(F)cccc2c1 [I.018, 3-(2,2-dioxido-2,1-benzothiazol-1(3H)-yl)-8-fluoroquinoline] |  |  | 2.52 | inhibition of growth at 20 ppm (Leptnosphaeria nodorum): 90 to 100%
CC1(C)C(=O)c2ccccc2N(c2cnc3ccccc3c2)S1(=O)=O [I.156, 3,3-dimethyl-1-(quinolin-3-yl)-1H-2,1-benzothiazin-4(3H)-one 2,2-dioxide] | 2.93 | 90 to 100% |  | inhibition of growth at 20 ppm (Leptnosphaeria nodorum): 70 to 79%
CC1Cc2ccccc2N(c2cnc3ccccc3c2)S1(=O)=O (centres unmarked) [I.158, 3-methyl-1-(quinolin-3-yl)-3,4-dihydro-1H-2,1-benzothiazine 2,2-dioxide] | 2.58 |  |  | 
O=C1CS(=O)(=O)N(c2cnc3ccccc3c2)c2ccccc21 [I.159, 1-(quinolin-3-yl)-1H-2,1-benzothiazin-4(3H)-one 2,2-dioxide] | 2.28 |  |  | 
CC1Cc2ccccc2N(c2cc3ccccc3[n+]([O-])c2)S1(=O)=O (centres unmarked) [I.162, 3-methyl-1-(1-oxidoquinolin-3-yl)-3,4-dihydro-1H-2,1-benzothiazine 2,2-dioxide] | 1.81 | 90 to 100% |  | inhibition of growth at 20 ppm (Leptnosphaeria nodorum): 90 to 100%
CC1(C)C(F)(F)c2ccccc2N(c2cnc3ccccc3c2)S1(=O)=O [I.163, 4,4-difluoro-3,3-dimethyl-1-(quinolin-3-yl)-3,4-dihydro-1H-2,1-benzothiazine 2,2-dioxide] | 3.25 | 80 to 89% |  | inhibition of growth at 20 ppm (Leptnosphaeria nodorum): 90 to 100%
CC1(C)CS(=O)(=O)N(c2cnc3ccccc3c2)c2ccccc21 [I.166, 4,4-dimethyl-1-(quinolin-3-yl)-3,4-dihydro-1H-2,1-benzothiazine 2,2-dioxide] | 2.88 | 90 to 100% |  | 
CC1(C)c2ccccc2N(c2cnc3ccccc3c2)S(=O)(=O)C1(C)C [I.172, 3,3,4,4-tetramethyl-1-(quinolin-3-yl)-3,4-dihydro-1H-2,1-benzothiazine 2,2-dioxide] | 3.85 | 90 to 100% |  | inhibition of growth at 20 ppm (Leptnosphaeria nodorum): 90 to 100%
CC1C(C)(C)c2ccccc2N(c2cnc3ccccc3c2)S1(=O)=O (centres unmarked) [I.173, 3,4,4-trimethyl-1-(quinolin-3-yl)-3,4-dihydro-1H-2,1-benzothiazine 2,2-dioxide] | 3.53 | 90 to 100% |  | inhibition of growth at 20 ppm (Leptnosphaeria nodorum): 90 to 100%
CC1(O)c2ccccc2N(c2cnc3ccccc3c2)S(=O)(=O)C1(C)C (centres unmarked) [I.213, 3,3,4-trimethyl-1-(quinolin-3-yl)-3,4-dihydro-1H-2,1-benzothiazin-4-ol 2,2-dioxide] | 2.46 | 80 to 89% |  | inhibition of growth at 20 ppm (Leptnosphaeria nodorum): 80 to 89%; chromatographic logP [1, 2]: 2.46
C=C1c2ccccc2N(c2cnc3c(F)c(F)ccc3c2)S(=O)(=O)C1(C)C [I.219, 1-(7,8-difluoroquinolin-3-yl)-3,3-dimethyl-4-methylene-3,4-dihydro-1H-2,1-benzothiazine 2,2-dioxide] | 3.34 | 90 to 100% |  | inhibition of growth at 20 ppm (Leptnosphaeria nodorum): 90 to 100%; chromatographic logP [1, 2]: 3.34
CC1(F)c2ccccc2N(c2cnc3c(F)c(F)ccc3c2)S(=O)(=O)C1(C)C (centres unmarked) [I.225, 1-(7,8-difluoroquinolin-3-yl)-4-fluoro-3,3,4-trimethyl-3,4-dihydro-1H-2,1-benzothiazine 2,2-dioxide] | 3.6 | 90 to 100% |  | inhibition of growth at 20 ppm (Leptnosphaeria nodorum): 90 to 100%; chromatographic logP [1, 2]: 3.6
O=C1c2ccccc2N(c2cnc3ccccc3c2)S(=O)(=O)C1(Cl)Cl [I.239, 3,3-dichloro-1-(quinolin-3-yl)-1H-2,1-benzothiazin-4(3H)-one 2,2-dioxide] | 3.49 |  |  | chromatographic logP [1, 2]: 3.49
O=S1(=O)CC(=NOCc2ccccc2)c2ccccc2N1c1cnc2ccccc2c1 [I.241, N-(benzyloxy)-1-(quinolin-3-yl)-1H-2,1-benzothiazin-4(3H)-imine 2,2-dioxide] | 3.94 | 70 to 79% |  | chromatographic logP [1, 2]: 3.94
CC1(OCc2ccccc2)c2ccccc2N(c2cnc3ccccc3c2)S(=O)(=O)C1(C)C (centres unmarked) [I.250, 4-(benzyloxy)-3,3,4-trimethyl-1-(quinolin-3-yl)-3,4-dihydro-1H-2,1-benzothiazine 2,2-dioxide] | 4.04 | 80 to 89% |  | inhibition of growth at 20 ppm (Leptnosphaeria nodorum): 90 to 100%
FC(F)(F)c1cccc2cc(I)cnc12 [II.01A] |  |  | 3.11 | 
Fc1c(Cl)ccc2cc(I)cnc12 [II.02A] |  |  | 3.37 | 
Cc1ccc2cc(I)cnc2c1F [II.03A] |  |  | 3.11 | 
N#Cc1ccc2ncc(I)cc2c1 [II.04A] |  |  | 2.5 | 

SMILES | chromatographic logP ([1]; Method C: 55° C.) | inhibition of growth at 20 ppm (Pyricularia oryzae) | chromatographic logP ([1]; Method A: 40° C.) | other results
Fc1cc(F)c2ncc(I)cc2c1 [II.05A] |  |  | 2.88 | 
Fc1ccc(F)c2ncc(I)cc12 [II.06A] |  |  | 2.94 | 
Clc1ccc2cc(I)cnc2c1Cl [II.07A] |  |  | 3.83 | 
Fc1cc2cc(I)cnc2cc1F [II.08A] |  |  | 3.15 | 
Fc1cc(Cl)cc2cc(I)cnc12 [II.09A] |  |  | 3.15 | 
Cc1ccc(F)c2ncc(I)cc12 [II.10A] |  |  | 3.06 | 
N#Cc1cccc2cc(I)cnc12 [II.11A] |  |  | 2.54 | 
Fc1cc(F)c2cc(I)cnc2c1 [II.12A] |  |  | 3.31 | 
O=S1(=O)Cc2c(F)cccc2N1 [III.01A] |  |  | 1.34 | 
O=S1(=O)Cc2c(cccc2C(F)(F)F)N1 [III.02A] |  |  | 1.99 | 
O=S1(=O)Cc2cc(C(F)(F)F)ccc2N1 [III.03A] |  |  | 1.95 | 
O=S1(=O)Cc2c(cccc2OC(F)(F)F)N1 [III.04A] |  |  | 2.11 | 
N#Cc1cccc2c1CS(=O)(=O)N2 [III.05A] |  |  | 1.08 | 
CC1(C)Cc2ccccc2NS1(=O)=O [III.06A] | 1.6 |  |  | 
O=S1(=O)Nc2ccccc2CC12CC2 [III.07A] | 1.49 |  |  | 
O=S1(=O)CCCc2ccccc2N1 [IIIc.02, 1,3,4,5-tetrahydro-2,1-benzothiazepine 2,2-dioxide] | 1.2 |  |  | 
O=S1(=O)N(Cc2ccccc2)c2ccccc2CC12CC2 [IV.01A] | 3.19 |  |  | 
O=S1(=O)C=CCc2ccccc2N1Cc1ccccc1 [V.01, 1-benzyl-1,5-dihydro-2,1-benzothiazepine 2,2-dioxide] | 6.01 |  |  | 
CC(C)(CS(=O)(=O)Nc1cnc2ccccc2c1)c1ccccc1Br [VIIIa.18, 2-(2-bromophenyl)-2-methyl-N-(quinolin-3-yl)propane-1-sulfonamide] | 2.98 |  |  | 
COC(=O)c1ccccc1N(c1cnc2ccccc2c1)S(C)(=O)=O [Xa.02, methyl 2-[(methylsulfonyl)(quinolin-3-yl)amino]benzoate] | 2.17 |  |  | 
COC(=O)c1ccccc1Nc1cnc2ccccc2c1 [methyl 2-(quinolin-3-ylamino)benzoate] | 2.96 |  |  | 
